Patent US11530220B2, “Substituted imidazo[1,5-a]pyrazines and [1,2,4]triazolo[4,3-a]pyrazines for the modulation of AhR” (IDEAYA BIOSCIENCES, INC., priority 2018, dated 2022)
Where two headings read alike, the source gives them in different places.

Target: T1, hAhR (Homo sapiens, UniProt P35869)
T1 construct: Stably integrated DRE-luciferase cell lines were generated by transducing the both cell lines with Cignal XRE luciferase reporter (Qiagen) lentiviral particles; endogenous in cells; host or cells: HEPG2 (human hepatoma) with stably integrated XRE/DRE-luciferase reporter
T1 sequence (P35869 11-848): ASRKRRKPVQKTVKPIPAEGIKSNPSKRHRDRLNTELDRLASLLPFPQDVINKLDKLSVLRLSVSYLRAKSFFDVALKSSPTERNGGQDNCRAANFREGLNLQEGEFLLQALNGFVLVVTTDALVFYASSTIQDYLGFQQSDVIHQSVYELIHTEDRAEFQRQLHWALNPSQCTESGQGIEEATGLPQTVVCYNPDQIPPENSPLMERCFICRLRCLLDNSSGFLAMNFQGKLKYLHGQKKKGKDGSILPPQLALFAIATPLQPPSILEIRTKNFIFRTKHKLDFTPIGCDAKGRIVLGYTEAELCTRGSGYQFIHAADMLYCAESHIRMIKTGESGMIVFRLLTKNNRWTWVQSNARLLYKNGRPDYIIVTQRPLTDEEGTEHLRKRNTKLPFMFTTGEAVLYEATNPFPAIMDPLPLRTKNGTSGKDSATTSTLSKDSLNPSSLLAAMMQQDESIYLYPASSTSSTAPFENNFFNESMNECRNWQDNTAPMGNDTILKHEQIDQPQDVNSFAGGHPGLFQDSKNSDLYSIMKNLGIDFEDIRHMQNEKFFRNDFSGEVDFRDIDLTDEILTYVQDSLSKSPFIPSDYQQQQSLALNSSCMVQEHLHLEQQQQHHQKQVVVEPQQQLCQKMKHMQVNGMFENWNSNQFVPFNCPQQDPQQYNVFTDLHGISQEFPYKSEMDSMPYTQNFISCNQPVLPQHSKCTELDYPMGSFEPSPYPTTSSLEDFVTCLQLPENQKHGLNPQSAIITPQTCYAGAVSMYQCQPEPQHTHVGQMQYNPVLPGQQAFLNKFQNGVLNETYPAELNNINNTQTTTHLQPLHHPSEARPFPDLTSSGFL
Assay: DRE-luciferase transcriptional assay, antagonist mode, in HEPG2 DRE-Luc cells stimulated with TCDD
Format: cell-based
Settings: for Emax: read-out: HEPG2 % Max Inhibition
Procedure: HEPG2 and HEPA1C1C7 cells were maintained in MEM and αMEM without nucleosides supplemented with 10% heat inactivated FBS respectively. Stably integrated DRE-luciferase cell lines were generated by transducing the both cell lines with Cignal XRE luciferase reporter (Qiagen) lentiviral particles according to the manufacturer protocol. For both cell lines stably integrated reporter cell lines were selected for the presence of 2 μg/mL puromycin. Following selection of stably integrated cell line pools, clonal cell lines were isolated by limiting dilution in 96-well plates. Transcriptional assays were performed by seeding 100 μL of cells at a density of 250,000 or 100,000 cells/mL, for HEPG2 and HEPA1C1C7 DRE-Luc cells respectively, into 96-well cell culture plates in OptiMEM supplemented with 0.5% heat inactivated FBS and allowed to attach overnight. For antagonist assays, the compounds were added in a semi-log dose response using a D300e Digital Dispenser (Tecan) followed normalization with vehicle (DMSO). Immediately following compound addition […] of 2,3,7,8-Tetrachlorodibenzo-p-dioxin (TCDD) was added to the cells to a final concentration of 3 nM or 0.3 nM for the HEPG2 and HEPA1C1C7 DRE-Luc cells respectively. Following 24 h incubation the medium was removed and the cells were lysed in 25 μL of Reporter Lysis Buffer (Promega). Firefly luciferase activity was measured immediately following the addition of 50 μL Luciferase Assay Reagent (Promega). The percent maximal activity for each point was determined using the following equation: 100−(RLUsample−RLUvehicle−TCDD)/(RLUvehicle+TCDD RLUvehicle−TCDD)*100. The relative IC50, defined as the compound concentration required to reduce the TCDD induced response between the top and bottom plateau of each individual dose response curve by half, for each compound was determined using Prism 7 (GraphPad Software).

[1] = HEPG2 DRE-Luc cells, 3 nM TCDD, 24 h incubation
[2] = HEPG2 DRE-Luc cells, 3 nM TCDD, 24 h incubation, relative IC50, read-out: IC50 hAhR (antagonist mode)

Emax [1]	IC50 [2]	Structure (SMILES)	Emax (HepG2, 24 h)	IC50
100%	500 to 1000 nM	Cc1cncc(-c2cn3c(C(C)C)nnc3c(NCCc3ccc(O)cc3)n2)c1 [Example 1]	–	–
100%	< 200 nM	Cc1cncc(-c2cn3c(C(C)C)nnc3c(NCCc3c[nH]c4ccccc34)n2)c1 [Example 3]	–	–
100%	< 200 nM	CC(C)c1nnc2c(NCCc3c[nH]c4ccccc34)nc(-c3cncc(C#N)c3)cn12 [Example 4, 5-{8-[(2-indol-3-ylethyl)amino]-3-isopropyl-4-hydro-1,2,4-triazolo[4,3-a]pyrazin-6-yl}pyridine-3-carbonitrile]	–	–
100%	200 to 500 nM	CC(C)c1cnc2c(NCCc3ccc(O)cc3)nc(-c3cncc(C#N)c3)cn12 [Example 6, 5-(8-{[2-(4-hydroxyphenyl)ethyl]amino}-3-isopropyl-4-hydroimidazo[1,2-a]pyrazin-6-yl)pyridine-3-carbonitrile]	–	–
100%	< 200 nM	Cc1cncc(-c2cn3c(C(C)C)cnc3c(NCCc3c[nH]c4ccccc34)n2)c1 [Example 7, (2-indol-3-ylethyl)[6-(5-methyl(3-pyridyl))-3-isopropyl-(4-hydroimidazo[1,2-a]pyrazin-8-yl)]amine]	–	–
100%	< 200 nM	CC(C)c1cnc2c(NCCc3c[nH]c4ccccc34)nc(-c3cncc(C#N)c3)cn12 [Example 8, 5-{8-[(2-indol-3-ylethyl)amino]-3-isopropyl-4-hydroimidazo[1,5-a]pyrazin-6-yl}pyridine-3-carbonitrile]	–	–
100%	200 to 500 nM	Cc1cncc(-c2cn3c(C(C)C)ncc3c(NCCc3c[nH]c4ccccc34)n2)c1 [Example 9]	–	–
100%	< 200 nM	Cc1nccn1-c1cn2c(C(C)C)cnc2c(NCCc2c[nH]c3cc(F)ccc23)n1 [Example 12, [2-(6-fluoroindol-3-yl)ethyl][3-isopropyl-6-(2-methylimidazolyl)(4-hydroimidazo[1,2-a]pyrazin-8-yl)]amine]	–	–
100%	< 200 nM	Cc1nccn1-c1cn2c(C(C)C)cnc2c(NCCc2c[nH]c3cccc(F)c23)n1 [Example 14, [2-(4-fluoroindol-3-yl)ethyl][3-isopropyl-6-(2-methylimidazolyl)(4-hydroimidazo[1,2-a]-pyrazin-8-yl)]amine]	–	–
73%	1000 to 10000 nM	Cc1nccn1-c1cn2c(C(C)C)cnc2c(NCCc2c[nH]c3cccnc23)n1 [Example 15, [3-isopropyl-6-(2-methylimidazolyl)(4-hydroimidazo[1,2-a]pyrazin-8-yl)](2-pyrrolo[3,2-b]pyridin-3-ylethyl)amine]	–	–
100%	500 to 1000 nM	Cc1nccn1-c1cn2c(C(C)C)cnc2c(N[C@H](C)Cc2c[nH]c3ccccc23)n1 [Example 17a]	–	–
81.3%	1000 to 10000 nM	Cc1nccn1-c1cn2c(C(C)C)cnc2c(N[C@@H](C)Cc2c[nH]c3ccccc23)n1 [Example 17b, ((1S)-2-indol-3-yl-isopropyl)[3-isopropyl-6-(2-methylimidazolyl)(4-hydroimidazo[1,2-a]-pyrazin-8-yl)]amine]	–	–
77%	1000 to 10000 nM	Cc1nccn1-c1cn2c(C(C)C)cnc2c(NCCc2cc[nH]c2)n1 [Example 18, [3-isopropyl-6-(2-methylimidazolyl)(4-hydroimidazo[1,2-a]pyrazin-8-yl)](2-pyrrol-3-ylethyl)amine]	–	–
100%	< 200 nM	CC(C)c1cnc2c(NCCc3n[nH]c4ccccc34)nc(-c3cncc(F)c3)cn12 [Example 20]	–	–
98%	200 to 500 nM	Cc1ncc(-c2cn3c(C(C)C)cnc3c(NCCc3c[nH]c4cccc(F)c34)n2)cc1F [Example 26]	–	–
100%	200 to 500 nM	Cc1ncc(-c2cn3c(C(C)C)cnc3c(NCCc3c[nH]c4cccc(F)c34)n2)cn1 [Example 27, [2-(4-fluoroindol-3-yl)ethyl][3-isopropyl-6-(2-methylpyrimidin-5-yl)(4-hydroimidazo[1,2-a]pyrazin-8-yl)]amine]	–	–

Second part, the molecule before the results:

Structure (SMILES)	Emax [1]	IC50 [2]	Emax (HepG2, 24 h)	IC50
CC(C)c1nnc2c(NCCc3ccc(O)cc3)nc(-c3cncc(C#N)c3)cn12 [Example 2, 5-(8-{[2-(4-hydroxyphenyl)ethyl]amino}-3-isopropyl-4-hydro-1,2,4-triazolo[4,3-a]pyrazin-6-yl)pyridine-3-carbonitrile]	100%	< 200 nM	–	–
Cc1cncc(-c2cn3c(C(C)C)cnc3c(NCCc3ccc(O)cc3)n2)c1 [Example 5]	65%	500 to 1000 nM	–	–
Cc1cncc(-c2cn3c(C(C)C)ncc3c(NCCc3ccc(O)cc3)n2)c1 [Example 10, 4-(2-{[6-(5-methyl(3-pyridyl))-3-isopropyl-4-hydroimidazo[1,5-a]pyrazin-8-yl]amino}ethyl)phenol]	–	1000 to 10000 nM	47%	–
Cc1nccn1-c1cn2c(C(C)C)cnc2c(NCCc2c[nH]c3c(F)cccc23)n1 [Example 11, [2-(7-fluoroindol-3-yl)ethyl][3-isopropyl-6-(2-methylimidazolyl)(4-hydroimidazo[1,2-a]pyrazin-8-yl)]amine]	–	< 200 nM	100%	–
Cc1nccn1-c1cn2c(C(C)C)cnc2c(NCCc2c[nH]c3ccc(F)cc23)n1 [Example 13, [2-(5-fluoroindol-3-yl)ethyl][3-isopropyl-6-(2-methylimidazolyl)(4-hydroimidazo[1,2-a]-pyrazin-8-yl)]amine]	99%	–	–	–
Cc1nccn1-c1cn2c(C(C)C)cnc2c(NCCc2c[nH]c3ncccc23)n1 [Example 16, [3-isopropyl-6-(2-methylimidazolyl)(4-hydroimidazo[1,2-a]pyrazin-8-yl)](2-pyrrolo[2,3-b]pyridin-3-ylethyl)amine]	83%	1000 to 10000 nM	–	–
CC(C)c1cnc2c(NCCn3c(=O)[nH]c4ccccc43)nc(-c3cncc(F)c3)cn12 [Example 19]	100%	< 200 nM	–	–
CC(CO)c1cnc2c(NCCc3c[nH]c4cccc(F)c34)nc(-c3cncc(F)c3)cn12 (centres unmarked) [Example 21, 2-(6-(5-fluoro-(3-pyridyl))-8-{[2-(4-fluoroindol-3-yl)ethyl]amino}-4-hydroimidazo[1,2-a]pyrazin-3-yl)propan-1-ol]	–	< 200 nM	100%	–
Cc1nccn1-c1cn2c(C(C)C)cnc2c(NCCc2c[nH]c3cc(F)cc(F)c23)n1 [Example 22, [2-(4,6-difluoroindol-3-yl)ethyl][3-isopropyl-6-(2-methylimidazolyl)(4-hydroimidazo[1,2-a]pyrazin-8-yl)]amine]	100%	< 200 nM	–	–
Cc1nccn1-c1cn2c(C(C)C)cnc2c(NCc2cccc(C(N)=O)c2)n1 [Example 23, 3-({[3-isopropyl-6-(2-methylimidazolyl)-4-hydroimidazo[1,2-a]pyrazin-8-yl]amino}-methyl)benzamide]	12%	1000 to 10000 nM	–	–
CC(C)c1cnc2c(NCCc3c[nH]c4cccc(F)c34)nc(-c3cncc(F)c3)cn12 [Example 24]	–	< 200 nM	100%	–
CC(C)c1cnc2c(NCCc3c[nH]c4cccc(F)c34)nc(-c3cnn(C)c3)cn12 [Example 25, [2-(4-fluoroindol-3-yl)ethyl][3-isopropyl-6-(1-methylpyrazol-4-yl)(4-hydroimidazo[1,2-a]-pyrazin-8-yl)]amine]	100%	< 200 nM	–	–
CC(C)c1cnc2c(NCc3cccc4[nH]ccc34)nc(-c3cncc(F)c3)cn12 [Example 28]	33%	500 to 1000 nM	–	–
CC(C)c1cnc2c(NCCn3ccc4ccccc43)nc(-c3cncc(F)c3)cn12 [Example 29]	–	–	100%	500 to 1000 nM
